The subject of series [1] is hepatoblastoma cell lines HepG2, Huh-6 and HB-214 versus hepatocytes.
Protocol: (§2) On day 0, cells were trypsinized and plated into a white walled 384-well plate containing pre-diluted known concentrations of various drugs. After 72 hours, an equal volume of Cell-Titer Glo 2.0 (G9243, Promega) was added to each well, incubated at room temperature while rocking in the dark for 15 minutes, followed by luminescence acquisition with a BioTek Synergy HT plate reader (BioTek, Winooski, VT).
For series [2], the system named is HB-295. The series is described as follows: Cell proliferation study, HB-295. It counts as cell-based, human. Conditions: 72 h drug exposure, Cell-Titer Glo, average of quadruplicates, read-out: absolute IC50, HB-295. Here is the method:
(§1) On day 0, cells were trypsinized and plated into white walled 384-well plates. On day 1, when cells were 70% confluent, volasertib (S2235, SelleckChem, Houston, TX), SN38 (S4908, SelleckChem) or vincristine (S1241, SelleckChem) suspended in DMSO were added to plates using a Tecan D300e drug printer (Tecan Life Sciences, Switzerland), ensuring less than 1% DMSO. […] Absolute IC50 values were calculated using GraphPad Prism (GraphPad, San Diego, CA). Synergy values were calculated using CalcuSyn (Biosoft, Cambridge, UK) software.

For series [3], the system named is HB-284. Nature of the series: Cell proliferation study, HB-284. Conditions: 72 h drug exposure, Cell-Titer Glo, average of quadruplicates, read-out: absolute IC50, HB-284. The format is cell-based, human. Here is the method:
as §1

The conditions of series [4]: cited from earlier work.
The subject of series [5] is HB-243. The series is described as follows: Cell proliferation study, HB-243. Conditions: 72 h drug exposure, Cell-Titer Glo, average of quadruplicates, read-out: absolute IC50, HB-243. The format is cell-based, human. Here is the method:
as §1

Series [6] concerns HB-279. The series is described as follows: Cell cycle analysis by flow cytometry (PI staining), HB-279. Conditions: for Percent of cells in S phase / Percent of cells in G2/M / Percent of cells in G1: HB-279, 72 hour treatment, 150 nM volasertib, 3 nM SN38, N=3; for Percent of cells in S phase: DMSO 16.1; for Percent of cells in G2/M: DMSO 26.8; for Percent of cells in G1: DMSO 56.5; for cell cycle arrest as compared to vehicle control: clinically achievable concentrations, 72 hours. It counts as cell-based, human. Here is the method: After a 72-hour drug treatment, cells were collected and fixed in ice cold 70% ethanol. After rehydration, cells were stained using the Guava Cell Cycle Reagent for Flow Cytometer (4500-0220, MilliporeSigma, Germany) according to the product protocol. Cells were analyzed for propidium iodide using the Guava EasyCyte 8HT (MilliporeSigma). Flow data was analyzed using CytoBank software (Cytobank, Santa Clara, CA).

Series [7] deals with HB-282. The series is described as follows: Cell proliferation study, HB-282. The format is cell-based, human. Conditions: 72 h drug exposure, Cell-Titer Glo, average of quadruplicates, read-out: absolute IC50, HB-282. Here is the method:
as §1

Series [8] relates to HB-279. The series is described as follows: Cell proliferation study, HB-279. The format is cell-based, human. Conditions: 72 h drug exposure, Cell-Titer Glo, average of quadruplicates, read-out: absolute IC50, HB-279. Here is the method: as §1
For series [9] the following is noted: cited from earlier work. The source holds these as a separate data set.
Series [10] has as its system HB-214. The series is described as follows: 60-agent chemical screen, cell viability (Cell-Titer Glo), HB-214.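 Also: viability read as luminescence once Cell-Titer Glo 2.0 reagent was added to drug-treated cells in 384-well plates.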 Conditions: Homo sapiens; 60-agent screen, 72 hours; a value of 10,000 indicates that the drug did not inhibit viability; read-out: absolute IC50, HB-214. The format is cell-based.
Protocol: as §2
Series [11] deals with HepG2. The series is described as follows: 60-agent chemical screen, cell viability (Cell-Titer Glo), HepG2.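 Also: luminescence read-out in 384-well plates, with cells plated directly onto drug dilutions of known concentration.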 The format is cell-based. Conditions: Homo sapiens, 60-agent screen, 72 hours, a value of 10,000 indicates that the drug did not inhibit viability, read-out: absolute IC50, HepG2.
Protocol: as §2
Series [12] concerns Huh-6. Nature of the series: 60-agent chemical screen, cell viability (Cell-Titer Glo), Huh-6. It counts as cell-based. Conditions: Homo sapiens, 60-agent screen, 72 hours, a value of 10,000 indicates that the drug did not inhibit viability, read-out: absolute IC50, Huh-6.
Protocol: as §2
Series [13] relates to normal human hepatocytes. Nature of the series: 60-agent chemical screen, cell viability (Cell-Titer Glo), hepatocytes.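 Also: cells were plated onto pre-diluted drug concentrations in 384-well plates, and viability was read after 72 h as CellTiter-Glo 2.0 luminescence.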 The format is cell-based. Conditions: Hepatocyte.
Protocol: as §2
Series [14] has as its system hepatoblastoma cell lines HepG2, Huh-6 and HB-214 versus hepatocytes. Nature of the series: 60-agent chemical screen, hepatoblastoma cell lines taken together / versus hepatocytes.
Protocol: as §2
Series [15] deals with six hepatoblastoma cell cultures. Nature of the series: Cell proliferation study, six hepatoblastoma cell cultures together. The format is cell-based, human. Here is the method: as §1
Series [16] relates to HB-214. The series is described as follows: Cell proliferation study, HB-214. It counts as cell-based. Conditions: Homo sapiens; 72 h drug exposure, Cell-Titer Glo, average of quadruplicates; read-out: absolute IC50, HB-214. Here is the method:
as §1

The subject of series [17] is PLK2. Further details: method as in PMID 19383823. Conditions: read-out: cell-free enzyme IC50, PLK2; cited from earlier work.
Series [18] deals with PLK1. Also noted: method as in PMID 19383823. Conditions: read-out: cell-free enzyme IC50, PLK1; cited from earlier work.
Series [19] has as its system SK-Hep1. Also noted: method as in PMID 27904765. Conditions: hepatocellular carcinoma cell line; cited from earlier work.
Series [20] relates to HB-214 PDX. The series is described as follows: HB-214 hepatoblastoma PDX in athymic nude mice. The format is in vivo. Conditions: volasertib 30 mg/kg IV 2qwk, irinotecan 10 mg/kg IP q5d, alone or combined; 6 mice per group.
Protocol: These fragments were engrafted in the interscapular region of 6-8 week-old female athymic nude mice (Athymic NudeFoxn1^nu, ENVIGO, Gannat, France). After latency period, mice with a subcutaneously growing tumor between 62 and 256 mm^3 were allocated to each treatment arm according to their tumor volume to obtain homogenous mean and median tumor volume in each arm. Treatments were randomly attributed to boxes housing up to five mice. […] Tumor volume (TV) was evaluated by caliper measurement, 2 or 3 times a week during latency and treatment period. The formula Total Volume (TV) (mm^3) = [length (mm) x width (mm)^2]/2 was used, where the length and the width are the longest and the shortest diameters of the tumor. The tumor growth delay index (TGDI) was calculated as the median growth delay in the treated group divided by the median growth delay in the control group, and represented the x-fold time to reach 5-fold the TV at D0.The ratio between the mean TV of a treated group (T) and the mean TV of the control group (C) was calculated at each measurement, and represented the antitumoral activity of the tested compound(s). The tumor growth rate, evaluated by the formula [DT/T0]-1 where DT is the delta of tumor size between the considered day and the day of enrolment and T0 is mean TV at D0, gives the percentage of growth compared with the initial day. […]
Series [21] concerns PLK3. Also noted: method as in PMID 19383823. Conditions: read-out: cell-free enzyme IC50, PLK3; cited from earlier work.
The test system of series [22] is SMMC7721. Also noted: method as in PMID 27904765. Conditions: hepatocellular carcinoma cell line; cited from earlier work.
The mark [23] stands for this setting: 60-agent screen, 72 hours, a value of 10,000 indicates that the drug did not inhibit viability, read-out: absolute IC50, Hepatocytes.

The values below come from publication PMC6849653, “Volasertib preclinical activity in high-risk hepatoblastoma” (Oncotarget, 2019).

Each structure is given as a SMILES string. “Also recorded” adds a separate entry of the source. Read-outs that look alike come from different tables or passages of the source. Where only a bound is given, the exact number is not on record here.

In the case of `Cc1ccc(S(=O)(=O)/C=C/C#N)cc1` [BAY-11-7082], the “Ratio normal/cancer: average ratio of the IC50 in hepatocytes to the IC50 in hepatoblastoma cell lines” value in [1] is given as 1.
Same read-out and setting: for `Clc1ccc(N/N=C(\c2ccccc2)c2ccccn2)nc1` [JIB-04] the value was 4.
Turning to `CS(=O)(=O)c1cccc(CNc2nc(Nc3ccc4c(c3)CCC(=O)N4)ncc2C(F)(F)F)c1` [PF 573228], the “Ratio normal/cancer: average ratio of the IC50 in hepatocytes to the IC50 in hepatoblastoma cell lines” value in series [1] came out at 1.
A word on the IC50: it is the concentration that gives 50% inhibition. The term Cmax denotes the maximum level reached in the sampled fluid or tissue. Turning to `CCc1c2c(nc3ccc(O)cc13)-c1cc3c(c(=O)n1C2)COC(=O)[C@]3(O)CC` [SN38], the IC50 in series [2] is 500 nM; in series [3], 210 nM; in series [5], 160 nM; in [7], 26 nM; in series [8], 200 nM. In addition, in [4] (SN38, pediatric study), the “AUC0-∞” value was 0.214 µM·h. Also, the Cmax in series [4] (SN38 from clinical trials) was 120 nM. Besides, the “Percent of cells in S phase” value in series [6] amounted to 17.7%. The “Percent of cells in G2/M” value in series [6] came to 34.3%. The “Percent of cells in G1” value in [6] came out at 47.6%. Also, in series [6], the “cell cycle arrest as compared to vehicle control” value is “modest G2/M phase arrest”.
As for `CCc1c2c(nc3ccc(OC(=O)N4CCC(N5CCCCC5)CC4)cc13)-c1cc3c(c(=O)n1C2)COC(=O)[C@]3(O)CC` [irinotecan], the side effects result in series [9] (irinotecan) is “diarrhea and neutropenia”.
Regarding `C/C=C(/C)C(=O)O[C@H]1C(C)=C2[C@H]([C@@H]1OC(=O)CCCCCCC)[C@@](C)(OC(C)=O)C[C@H](OC(=O)CCC)[C@@]1(O)[C@H]2OC(=O)[C@@]1(C)O` [thapsigargin], the IC50 in [10] was determined as 160 nM; in series [11], 21 nM; in series [12] it was 280 nM; in [13] (setting [23]), 519 nM. Besides, in series [9] (in vivo), the known toxicity entry is listed as “significant renal toxicity”.
In the case of `Cc1cc(Nc2cc(N3CCN(C)CC3)nc(Sc3ccc(NC(=O)C4CC4)cc3)n2)[nH]n1` [tozasertib], the IC50 in [10] is 1480 nM; in series [11], above 10000 nM; in series [12] it was 3260 nM; in series [13] (setting [23]), above 10000 nM.
For the compound `CC(=O)Nc1cccc(-n2c(=O)n(C3CC3)c(=O)c3c(Nc4ccc(I)cc4F)n(C)c(=O)c(C)c32)c1` [trametinib], the IC50 in series [10] is 210 nM; in series [11], above 10000 nM; in series [12], above 10000 nM; in series [13] (setting [23]), above 10000 nM. Further, in series [14] (60-agent screen), the “effectiveness across the three hepatoblastoma cell lines” value is on record as “only effective in one cell line out of three”.
Take `CN1CCc2c(c3ccccc3n2Cc2ccc(C(=O)NO)cc2)C1` [tubastatin A]: the IC50 in [10], in series [11], in series [12] and in series [13] (setting [23]) was above 10000 nM each time.
As for `CC[C@]1(O)C[C@H]2CN(CCc3c([nH]c4ccccc34)[C@@](C(=O)OC)(c3cc4c(cc3OC)N(C=O)[C@H]3[C@@](O)(C(=O)OC)[C@H](OC(C)=O)[C@]5(CC)C=CCN6CC[C@]43[C@@H]65)C2)C1` [vincristine], the Cmax in series [4] (published Cmax of vincristine) is 90 nM. Moreover, the “sensitivity of hepatoblastoma cell lines to vincristine” value in series [15] (72hr drug exposure, Supplementary Figure 4) was “Several cell lines were highly resistant”.
Regarding `CC[C@@H]1C(=O)N(C)c2cnc(Nc3ccc(C(=O)N[C@H]4CC[C@H](N5CCN(CC6CC6)CC5)CC4)cc3OC)nc2N1C(C)C` [volasertib], the IC50 in series [2] (Homo sapiens) was 1170 nM; in series [3] (Homo sapiens), 3300 nM; in series [10], 360 nM; in series [16], 725 nM; in series [11] it was 528 nM; in series [17], 5 nM. The IC50 in [5] (Homo sapiens) is 252 nM; in [12], 3820 nM; in [13] (as restated in the discussion, read-out: IC50, normal hepatocytes), above 10000 nM; in series [7] (Homo sapiens), 2130 nM; in series [18], 0.87 nM; in series [19], 7020 nM. In addition, the IC50 was 360 to 528 nM in series [14] (Homo sapiens, Hepatocyte, read-out: IC50, cancer cells); 56 nM in series [21]; 3970 nM in series [22]; 2020 nM in series [8] (Homo sapiens); below 10000 nM in series [15] (Homo sapiens, range over HB-214, HB-243, HB-279, HB-282, HB-284, HB-295, read-out: IC50 across all six hepatoblastoma cell cultures). Also, in series [9] (volasertib), the side effects result was “neutropenia and anemia”. Moreover, in [4] (measured in clinical trials), the Cmax is 1220 nM. In addition, in [6], the “Percent of cells in S phase” value was determined as 14.2%. Moreover, the “Percent of cells in G2/M” value in series [6] came to 40.7%. In addition, the “Percent of cells in G1” value in series [6] was found to be 44.7%. The “cell cycle arrest as compared to vehicle control” value in series [6] is listed as “cell cycle arrest in G2/M”. In [20], the “tumor growth (mean tumor volume over time)” value was “appreciable and cytostatic; also recorded: slowed”.
For the compound `O=c1ncccn1[C@@H]1O[C@H](CO)[C@@H](O)[C@H]1O` [zebularine], the IC50 in [10], in series [11], in [12] and in series [13] (setting [23]) was above 10000 nM each time.
